From US7396837B2, “Antitumoral analogs of lamellarins” (Pharma Mar, S.A.U., priority 2002, dated 2008)
Read-outs that look alike come from different tables or passages of the source.

Key:
Type in all cases: cell-based
HT-29 = assay: SRB colorimetric cell growth inhibition assay, HT-29; details: for GI50: GI=growth inhibition, read-out: GI50 HT-29; for CC50: cell killing (cytotoxic effect), read-out: LC50 HT-29
Summary of the method: (§1)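 Continuous-exposure format, human tumour lines. SRB colour reaction quantifies growth/viability. Triplicate wells → mean ± SD → GI, TGI, LC.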

LNCaP = assay: SRB colorimetric cell growth inhibition assay, LNCaP; details: LN-caP; for GI50: GI=growth inhibition, read-out: GI50 LN-caP; for CC50: cell killing (cytotoxic effect), read-out: LC50 LN-caP
Summary of the method: as §1

A-549 = assay: SRB colorimetric cell growth inhibition assay, A-549; details: for GI50: GI=growth inhibition, read-out: GI50 A-549; for CC50: cell killing (cytotoxic effect), read-out: LC50 A-549
Summary of the method: as §1

LoVo-Dox = assay: SRB colorimetric cell growth inhibition assay, LoVo-Dox (MDR); details: LOVO-DOX; for GI50: GI=growth inhibition, read-out: GI50 LOVO-DOX; for CC50: cell killing (cytotoxic effect), read-out: LC50 LOVO-DOX
Summary of the method: as §1

LoVo = assay: SRB colorimetric cell growth inhibition assay, LoVo; details: for GI50: GI=growth inhibition, read-out: GI50 LOVO; for CC50: cell killing (cytotoxic effect), read-out: LC50 LOVO
Summary of the method: as §1

PANC-1 = assay: SRB colorimetric cell growth inhibition assay, PANC-1; details: for GI50: GI=growth inhibition, read-out: GI50 PANC-1; for CC50: cell killing (cytotoxic effect), read-out: LC50 PANC-1
Summary of the method: as §1

SK-BR-3 = assay: SRB colorimetric cell growth inhibition assay, SK-BR-3; details: for GI50: GI=growth inhibition, read-out: GI50 SK-BR-3; for CC50: cell killing (cytotoxic effect), read-out: LC50 SK-BR-3
Summary of the method: as §1

IGROV = assay: SRB colorimetric cell growth inhibition assay, IGROV; details: IGROV; for GI50: GI=growth inhibition, read-out: GI50 IGROV; for CC50: cell killing (cytotoxic effect), read-out: LC50 IGROV
Summary of the method: as §1

K-562 = assay: SRB colorimetric cell growth inhibition assay, K-562; details: for GI50: GI=growth inhibition, read-out: GI50 K-562; for CC50: cell killing (cytotoxic effect), read-out: LC50 K-562
Summary of the method: as §1

IGROV-ET = assay: SRB colorimetric cell growth inhibition assay, IGROV-ET (ET-743 resistant); details: IGROV-ET; for GI50: GI=growth inhibition, read-out: GI50 IGROV-ET; for CC50: cell killing (cytotoxic effect), read-out: LC50 IGROV-ET
Summary of the method: as §1

HeLa = assay: SRB colorimetric cell growth inhibition assay, HeLa; details: for GI50: GI=growth inhibition, read-out: GI50 HELA; for CC50: cell killing (cytotoxic effect), read-out: LC50 HELA
Summary of the method: as §1

SK-MEL-28 = assay: SRB colorimetric cell growth inhibition assay, SK-MEL-28; details: for GI50: GI=growth inhibition, read-out: GI50 MEL-28; for CC50: cell killing (cytotoxic effect), read-out: LC50 MEL-28
Summary of the method: as §1

DU-145 = assay: SRB colorimetric cell growth inhibition assay, DU-145; details: for CC50: cell killing (cytotoxic effect), read-out: LC50 DU-145; for GI50: GI=growth inhibition, read-out: GI50 DU-145; for IC (TGI): total growth inhibition (cytostatic effect), read-out: TGI DU-145
Summary of the method: as §1

HeLa-APL = assay: SRB colorimetric cell growth inhibition assay, HeLa-APL (aplidine resistant); details: HELA-APL; for GI50: GI=growth inhibition, read-out: GI50 HELA-APL; for CC50: cell killing (cytotoxic effect), read-out: LC50 HELA-APL
Summary of the method: as §1

[1] = total growth inhibition (cytostatic effect)
[2] = Homo sapiens, SK-MEL-28, MEL-28

For `COc1cc(-c2c3c4cc(OC)c(OC(=O)[C@H](C)N)cc4oc(=O)c3n3ccc4c(OC(=O)[C@H](C)N)c(OC)c(OC)cc4c23)ccc1OC(=O)[C@H](C)N` [Compound 191], the GI50 (HT-29; HT-29) was 6180 nM, the CC50 (HT-29; HT-29) was 11700 nM and the “TGI HT-29” value (HT-29; HT-29, total growth inhibition (cytostatic effect)) was 1.17E−05 Molar. The GI50 (LNCaP; Homo sapiens, LNCaP) was 244 nM, the CC50 (LNCaP) was 5360 nM and the “TGI LN-caP” value (LNCaP; [1]) was 1.48E−06 Molar. For the same molecule, the GI50 (A-549; A-549) was 573 nM, the CC50 (A-549; A-549) was 11700 nM and the “TGI A-549” value (A-549; A-549, total growth inhibition (cytostatic effect)) was 1.17E−05 Molar. The GI50 (LoVo-Dox) was 785 nM, the CC50 (LoVo-Dox) was 11700 nM and the “TGI LOVO-DOX” value (LoVo-Dox; [1]) was 1.17E−05 Molar. For the same molecule, the GI50 (LoVo; LOVO) was 513 nM, the CC50 (LoVo; LOVO) was 7900 nM and the “TGI LOVO” value (LoVo; LOVO, total growth inhibition (cytostatic effect)) was 1.70E−06 Molar. The GI50 (PANC-1; PANC-1) was 1270 nM, the CC50 (PANC-1; PANC-1) was 11700 nM and the “TGI PANC-1” value (PANC-1; PANC-1, total growth inhibition (cytostatic effect)) was 9.66E−06 Molar. The GI50 (SK-BR-3; SK-BR-3) was 555 nM, the CC50 (SK-BR-3; SK-BR-3) was 11700 nM and the “TGI SK-BR-3” value (SK-BR-3; SK-BR-3, total growth inhibition (cytostatic effect)) was 3.66E−06 Molar. For the same molecule, the GI50 (IGROV) was 458 nM, the CC50 (IGROV) was 11700 nM and the “TGI IGROV” value (IGROV; [1]) was 2.77E−06 Molar. For the same molecule, the GI50 (K-562; K-562) was 129 nM, the CC50 (K-562; K-562) was 9490 nM and the “TGI K-562” value (K-562; K-562, total growth inhibition (cytostatic effect)) was 1.69E−06 Molar. The GI50 (IGROV-ET) was 588 nM, the CC50 (IGROV-ET) was 11700 nM and the “TGI IGROV-ET” value (IGROV-ET; [1]) was 6.96E−06 Molar. For the same molecule, the GI50 (HeLa; HELA) was 948 nM, the CC50 (HeLa; HELA) was 8630 nM and the “TGI HELA” value (HeLa; HELA, total growth inhibition (cytostatic effect)) was 2.96E−06 Molar. The GI50 (SK-MEL-28; MEL-28) was 363 nM, the CC50 (SK-MEL-28; MEL-28) was 11700 nM and the “TGI MEL-28” value (SK-MEL-28; MEL-28, total growth inhibition (cytostatic effect)) was 1.17E−05 Molar. For the same molecule, the CC50 (DU-145; DU-145) was 11700 nM, the GI50 (DU-145; Homo sapiens, DU-145, DU-145) was 62.1 nM and the IC (TGI) (DU-145; Homo sapiens, DU-145, DU-145) was 228 nM. For the same molecule, the GI50 (HeLa-APL) was 940 nM, the CC50 (HeLa-APL) was 5960 nM and the “TGI HELA-APL” value (HeLa-APL; [1]) was 2.52E−06 Molar.

`COc1cc(-c2c3c4cc(OC)c(OC(=O)CCCCCN)cc4oc(=O)c3n3ccc4c(OC(=O)CCCCCN)c(OC)c(OC)cc4c23)ccc1OC(=O)CCCCCN` [Compound 193] gave a GI50 (HT-29; Homo sapiens, HT-29, HT-29) of 10200 nM, a CC50 (HT-29; Homo sapiens, HT-29, HT-29) of 10200 nM and an IC (TGI) (HT-29; Homo sapiens, HT-29, HT-29, total growth inhibition (cytostatic effect), read-out: TGI HT-29) of 10200 nM. The GI50 (LNCaP; Homo sapiens, LNCaP) was 118 nM, the CC50 (LNCaP; Homo sapiens, LNCaP) was 5490 nM and the IC (TGI) (LNCaP; Homo sapiens, LNCaP, total growth inhibition (cytostatic effect), read-out: TGI LN-caP) was 491 nM. For the same molecule, the GI50 (A-549; Homo sapiens, A549, A-549) was 607 nM, the CC50 (A-549; Homo sapiens, A549, A-549) was 10200 nM and the IC (TGI) (A-549; Homo sapiens, A549, A-549, total growth inhibition (cytostatic effect), read-out: TGI A-549) was 10200 nM. It also gave a GI50 (LoVo-Dox; Homo sapiens) of 313 nM, a CC50 (LoVo-Dox; Homo sapiens) of 10200 nM and an IC (TGI) (LoVo-Dox; Homo sapiens, total growth inhibition (cytostatic effect), read-out: TGI LOVO-DOX) of 10200 nM. For the same molecule, the GI50 (LoVo; Homo sapiens, LoVo) was 350 nM, the CC50 (LoVo; Homo sapiens, LoVo) was 10200 nM and the IC (TGI) (LoVo; Homo sapiens, LoVo, total growth inhibition (cytostatic effect), read-out: TGI LOVO) was 847 nM. It also gave a GI50 (PANC-1; Homo sapiens, PANC-1, PANC-1) of 278 nM, a CC50 (PANC-1; Homo sapiens, PANC-1, PANC-1) of 10200 nM and an IC (TGI) (PANC-1; Homo sapiens, PANC-1, PANC-1, total growth inhibition (cytostatic effect), read-out: TGI PANC-1) of 3600 nM. It also gave a GI50 (SK-BR-3; Homo sapiens, SK-BR-3, SK-BR-3) of 227 nM, a CC50 (SK-BR-3; Homo sapiens, SK-BR-3, SK-BR-3) of 10200 nM and an IC (TGI) (SK-BR-3; Homo sapiens, SK-BR-3, SK-BR-3, total growth inhibition (cytostatic effect), read-out: TGI SK-BR-3) of 567 nM. The GI50 (IGROV; Homo sapiens) was 74.1 nM, the CC50 (IGROV; Homo sapiens) was 3480 nM and the IC (TGI) (IGROV; Homo sapiens, total growth inhibition (cytostatic effect), read-out: TGI IGROV) was 410 nM. The GI50 (K-562; Homo sapiens, K562, K-562) was 123 nM, the CC50 (K-562; Homo sapiens, K562, K-562) was 3910 nM and the IC (TGI) (K-562; Homo sapiens, K562, K-562, total growth inhibition (cytostatic effect), read-out: TGI K-562) was 399 nM. The GI50 (IGROV-ET; Homo sapiens) was 136 nM, the CC50 (IGROV-ET; Homo sapiens) was 9590 nM and the IC (TGI) (IGROV-ET; Homo sapiens, total growth inhibition (cytostatic effect), read-out: TGI IGROV-ET) was 432 nM. For the same molecule, the GI50 (HeLa; Homo sapiens, HeLa) was 350 nM, the CC50 (HeLa; Homo sapiens, HeLa) was 10200 nM and the IC (TGI) (HeLa; Homo sapiens, HeLa, total growth inhibition (cytostatic effect), read-out: TGI HELA) was 10200 nM. It also gave a GI50 (SK-MEL-28; [2]) of 101 nM, a CC50 (SK-MEL-28; [2]) of 10200 nM and an IC (TGI) (SK-MEL-28; Homo sapiens, SK-MEL-28, MEL-28, total growth inhibition (cytostatic effect), read-out: TGI MEL-28) of 497 nM. It also gave a GI50 (DU-145; Homo sapiens, DU-145, DU-145) of 33.3 nM, a CC50 (DU-145; Homo sapiens, DU-145, DU-145) of 438 nM and an IC (TGI) (DU-145; Homo sapiens, DU-145, DU-145) of 128 nM. The GI50 (HeLa-APL; Homo sapiens) was 797 nM, the CC50 (HeLa-APL; Homo sapiens) was 10200 nM and the IC (TGI) (HeLa-APL; Homo sapiens, total growth inhibition (cytostatic effect), read-out: TGI HELA-APL) was 10200 nM.
